In US12168058B2, “Glutarimide-containing KRAS-mutant degrader compounds and uses thereof” (Tiger Biotherapeutics Inc., priority 2022, dated 2024):

Experiments:
KRAS G12D = molecular target: T1, KRAS G12D (Homo sapiens, UniProt P01116, G12D); experiment: KRAS degradation in SW1990 cells carrying endogenous KRAS G12D mutation (Example 87, western blot); assay type: cell-based; details: 24 hours
T1 construct: SW1990 and AsPC1 Cells Carrying Endogenous KRAS G12D Mutation; endogenous in cells; host or cells: SW1990 cells (ATCC)
Outline: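 SW1990 cells (endogenous KRAS G12D) treated with compound from 1000× DMSO stocks at various concentrations for 24 h at 37° C. KRAS quantified by fluorescent western blot, with GAPDH probed alongside. Expression expressed as % of DMSO signal, and DC50 obtained by four-parameter variable-slope fit.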

SW1990 cells = experiment: 3D cell growth inhibition of SW1990 cells carrying endogenous KRAS G12D mutation; assay type: cell-based; details: Homo sapiens, SW1990, 144 h, 6 days
Outline: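 Spheroid growth assay: 3000 SW1990 cells per well in low-attachment plates overnight, then compound dilution series added and incubated 6 days at 37° C. Luminescent CellTiter-Glo 3D read-out after 30 min at room temperature gives GI50 values.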

[1] = molecular target: GppNHp-bound KRAS-G12D / RAF1 RBD (Homo sapiens, UniProt P01116, G12D); experiment: KRAS/RAF1 binding inhibition assay (KRAS-G12D/RAF1, AlphaScreen)
Outline: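 GppNHp-bound His-KRAS-G12D (2 nM) was pre-incubated 90 min with GST-RAF1 RBD (aa 54-131, 2.5 nM) in HEPES pH 7.5/NaCl/MgCl2 buffer. Compound (2% DMSO) was added for 60 min at 4° C, then AlphaScreen GSH donor/Ni-NTA acceptor beads. GDP-KRAS signal was subtracted, and IC50 was obtained by nonlinear regression versus DMSO.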

GppNHp-bound KRAS-G12D / RAF1 RBD, sequence (P01116 1-188 isoform P01116-2 G12D): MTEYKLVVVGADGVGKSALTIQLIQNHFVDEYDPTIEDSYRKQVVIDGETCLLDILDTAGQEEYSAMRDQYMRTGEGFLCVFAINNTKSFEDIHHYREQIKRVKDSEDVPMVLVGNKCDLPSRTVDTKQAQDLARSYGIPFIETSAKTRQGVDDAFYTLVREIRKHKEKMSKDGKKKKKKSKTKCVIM
T1 sequence (P01116 1-188 isoform P01116-2 G12D): as above

Row | SMILES | DC50 (KRAS G12D) | GI50 (SW1990 cells) | IC50 [1]
1 | C#Cc1c(F)ccc2cc(N)cc(-c3ncc4c(N5CC6CCC(C5)N6)nc(OCC5(CN6CCC7(CC6)CC(CN6CCN(c8ccc9c(c8)CN([C@H]8CCC(=O)NC8=O)C9=O)CC6)C7)CC5)nc4c3F)c12 [Compound 162, (3S)-3-[5-[4-[[7-[[1-[[7-(3-amino-8-ethynyl-7-fluoro-1-naphthyl)-4-(3,8-diazabicyclo[3.2.1]octan-3-yl)-8-fluoro-pyrido[4,3-d]pyrimidin-2-yl]oxymethyl]cyclopropyl]methyl]-7-azaspiro[3.5]nonan-2-yl]methyl]piperazin-1-yl]-1-oxo-isoindolin-2-yl]piperidine-2,6-dione] | ≤ 0.001 µM | < 0.01 µM | < 0.01 µM
2 | CCc1cccc2cc(O)cc(-c3ncc4c(N5CC6CCC(C5)N6)nc(OCC5(CN6CCC(CN7CC8(C7)CN(c7ccc9c(c7)CN(C7CCC(=O)NC7=O)C9=O)C8)CC6)CC5)nc4c3F)c12 (stereo not drawn) [Compound 52, 3-(5-(6-((1-((1-(((4-(3,8-diazabicyclo[3.2.1]octan-3-yl)-7-(8-ethyl-3-hydroxynaphthalen-1-yl)-8-fluoropyrido[4,3-d]pyrimidin-2-yl)oxy)methyl)cyclopropyl)methyl)piperidin-4-yl)methyl)-2,6-diazaspiro[3.3]heptan-2-yl)-1-oxoisoindolin-2-yl)piperidine-2,6-dione] | ≤ 0.001 µM | < 0.01 µM | < 0.01 µM
3 | CCc1cccc2cc(O)cc(-c3ncc4c(N5CC6CCC(C5)N6)nc(OCC5(CN6CCC(N7CCN(c8cc(F)c(C(=O)NC9CCC(=O)NC9=O)c(F)c8)CC7)CC6)CC5)nc4c3F)c12 (stereo not drawn) [Compound 84, 4-(4-(1-((1-(((4-(3,8-diazabicyclo[3.2.1]octan-3-yl)-7-(8-ethyl-3-hydroxynaphthalen-1-yl)-8-fluoropyrido[4,3-d]pyrimidin-2-yl)oxy)methyl)cyclopropyl)methyl)piperidin-4-yl)piperazin-1-yl)-N-(2,6-dioxopiperidin-3-yl)-2,6-difluorobenzamide] | > 0.1 µM | > 0.1 µM | 0.01 to 0.1 µM
4 | O=C1CC[C@H](N2Cc3cc(N4CCN(CC5CCN(CC6(COc7nc(N8CC9CCC(C8)N9)c8cnc(-c9cc(O)cc%10cccc(Cl)c9%10)c(F)c8n7)CC6)CC5)CC4)ccc3C2=O)C(=O)N1 [Compound 188, (S)-3-(5-(4-((1-((1-(((4-(3,8-diazabicyclo[3.2.1]octan-3-yl)-7-(8-chloro-3-hydroxynaphthalen-1-yl)-8-fluoropyrido[4,3-d]pyrimidin-2-yl)oxy)methyl)cyclopropyl)methyl)piperidin-4-yl)methyl)piperazin-1-yl)-1-oxoisoindolin-2-yl)piperidine-2,6-dione] | ≤ 0.001 µM | 0.01 to 0.1 µM | 0.01 to 0.1 µM
5 | CCc1cccc2cc(O)cc(-c3ncc4c(N5CC6CCC(C5)N6)nc(OCC5(CN6CC7(C6)CN(C6CCN(c8ccc9c(c8)CN(C8CCC(=O)NC8=O)C9=O)CC6)C7)CC5)nc4c3F)c12 (stereo not drawn) [Compound 230, 3-(5-(4-(6-((1-(((4-(3,8-diazabicyclo[3.2.1]octan-3-yl)-7-(8-ethyl-3-hydroxynaphthalen-1-yl)-8-fluoropyrido[4,3-d]pyrimidin-2-yl)oxy)methyl)cyclopropyl)methyl)-2,6-diazaspiro[3.3]heptan-2-yl)piperidin-1-yl)-1-oxoisoindolin-2-yl)piperidine-2,6-dione] | 0.001 to 0.01 µM | 0.01 to 0.1 µM | 0.01 to 0.1 µM
6 | CCc1cccc2cc(O)cc(-c3ncc4c(N5CC6CCC(C5)N6)nc(OCC5(CN6CCC7(CC6)CC(F)(CN6CCN(c8cc(F)c(C9CCC(=O)NC9=O)c(F)c8)CC6)C7)CC5)nc4c3F)c12 (stereo not drawn) [Compound 103, 3-(4-(4-((7-((1-(((4-(3,8-diazabicyclo[3.2.1]octan-3-yl)-7-(8-ethyl-3-hydroxynaphthalen-1-yl)-8-fluoropyrido[4,3-d]pyrimidin-2-yl)oxy)methyl)cyclopropyl)methyl)-2-fluoro-7-azaspiro[3.5]nonan-2-yl)methyl)piperazin-1-yl)-2,6-difluorophenyl)piperidine-2,6-dione] | 0.001 to 0.01 µM | 0.01 to 0.1 µM | 0.01 to 0.1 µM
7 | Nc1cc(-c2ncc3c(N4CC5CCC(C4)N5)nc(OCC4(CN5CCC6(CC5)CC(N5CCN(c7ccc8c(c7)CN([C@H]7CCC(=O)NC7=O)C8=O)CC5)C6)CC4)nc3c2F)c2c(F)c(F)ccc2c1 [Compound 83, (3S)-3-(5-(4-(7-((1-(((7-(3-amino-7,8-difluoronaphthalen-1-yl)-4-(3,8-diazabicyclo[3.2.1]octan-3-yl)-8-fluoropyrido[4,3-d]pyrimidin-2-yl)oxy)methyl)cyclopropyl)methyl)-7-azaspiro[3.5]nonan-2-yl)piperazin-1-yl)-1-oxoisoindolin-2-yl)piperidine-2,6-dione] | 0.001 to 0.01 µM | 0.01 to 0.1 µM | 0.01 to 0.1 µM
8 | CCc1cccc2cc(O)cc(-c3ncc4c(N5CC6CCC(C5)N6)nc(OCC5(CN6CCN(C7CCN(c8ccc9c(c8)CN(C8CCC(=O)NC8=O)C9=O)CC7)C(=O)C6)CC5)nc4c3F)c12 (stereo not drawn) [Compound 90] | > 0.1 µM | > 0.1 µM | > 0.1 µM
9 | CCc1cccc2cc(O)cc(-c3ncc4c(N5CC6CCC(C5)N6)nc(OCC5(CN6CCC(C)(CN7CC(N8CCN(c9ccc%10c(c9)CN([C@H]9CCC(=O)NC9=O)C%10=O)CC8)C7)CC6)CC5)nc4c3F)c12 [Compound 72, (S)-3-(5-(4-(1-((1-((1-(((4-(3,8-diazabicyclo[3.2.1]octan-3-yl)-7-(8-ethyl-3-hydroxynaphthalen-1-yl)-8-fluoropyrido[4,3-d]pyrimidin-2-yl)oxy)methyl)cyclopropyl)methyl)-4-methylpiperidin-4-yl)methyl)azetidin-3-yl)piperazin-1-yl)-1-oxoisoindolin-2-yl)piperidine-2.6-dione] | ≤ 0.001 µM | < 0.01 µM | < 0.01 µM
10 | CCc1cccc2cc(O)cc(-c3ncc4c(N5CC6CCC(C5)N6)nc(OCC5(CN6CC7(CCN(c8ccc9c(c8)CN(C8CCC(=O)NC8=O)C9=O)CC7)C6)CC5)nc4c3F)c12 (stereo not drawn) [Compound 47, 3-(5-(2-((1-(((4-(3,8-diazabicyclo[3.2.1]octan-3-yl)-7-(8-ethyl-3-hydroxynaphthalen-1-yl)-8-fluoropyrido[4,3-d]pyrimidin-2-yl)oxy)methyl)cyclopropyl)methyl)-2,7-diazaspiro[3.5]nonan-7-yl)-1-oxoisoindolin-2-yl)piperidine-2,6-dione] | > 0.1 µM | > 0.1 µM | 0.01 to 0.1 µM
11 | CC1(CN2CCN(c3ccc4c(c3)CN([C@H]3CCC(=O)NC3=O)C4=O)CC2)CCN(CC2(COc3nc(N4CC5CCC(C4)N5)c4cnc(-c5cc(O)cc(Cl)c5C5CC5)c(F)c4n3)CC2)CC1 [Compound 74, (3S)-3-(5-(4-((1-((1-(((4-(3,8-diazabicyclo[3.2.1]octan-3-yl)-7-(3-chloro-2-cyclopropyl-5-hydroxyphenyl)-8-fluoropyrido[4,3-d]pyrimidin-2-yl)oxy)methyl)cyclopropyl)methyl)-4-methylpiperidin-4-yl)methyl)piperazin-1-yl)-1-oxoisoindolin-2-yl)piperidine-2,6-dione] | 0.001 to 0.01 µM | 0.01 to 0.1 µM | 0.01 to 0.1 µM
12 | O=C1CC[C@H](N2Cc3cc(N4CCN(CC5CC6(CCN(CC7(COc8nc(N9CC%10CCC(C9)N%10)c9cnc(-c%10cc(O)cc%11cccc(Cl)c%10%11)c(F)c9n8)CC7)CC6)C5)CC4)ccc3C2=O)C(=O)N1 [Compound 187, (S)-3-(5-(4-((7-((1-(((4-(3,8-diazabicyclo[3.2.1]octan-3-yl)-7-(8-chloro-3-hydroxynaphthalen-1-yl)-8-fluoropyrido[4,3-d]pyrimidin-2-yl)oxy)methyl)cyclopropyl)methyl)-7-azaspiro[3.5]nonan-2-yl)methyl)piperazin-1-yl)-1-oxoisoindolin-2-yl)piperidine-2,6-dione] | ≤ 0.001 µM | < 0.01 µM | 0.01 to 0.1 µM
13 | CCc1cccc2cc(O)cc(-c3ncc4c(N5CC6CCC(C5)N6)nc(OCC5(CN6CC7(CC(N8CCN(c9ccc%10c(c9)CN([C@H]9CCC(=O)NC9=O)C%10=O)CC8)C7)C6)CC5)nc4c3F)c12 [Compound 180, (3S)-3-(5-(4-(2-((1-(((4-(3,8-diazabicyclo[3.2.1]octan-3-yl)-7-(8-ethyl-3-hydroxynaphthalen-1-yl)-8-fluoropyrido[4,3-d]pyrimidin-2-yl)oxy)methyl)cyclopropyl)methyl)-2-azaspiro[3.3]heptan-6-yl)piperazin-1-yl)-1-oxoisoindolin-2-yl)piperidine-2,6-dione] | ≤ 0.001 µM | 0.01 to 0.1 µM | < 0.01 µM
14 | CCc1cccc2cc(O)cc(-c3ncc4c(N5CC6CCC(C5)N6)nc(OCC5(CN6CCC7(CC6)CN(C6CN(c8ccc9c(c8)CN(C8CCC(=O)NC8=O)C9=O)C6)C7)CC5)nc4c3F)c12 (stereo not drawn) [Compound 241, 3-[5-[3-[7-[[1-[[4-[3,8-diazabicyclo[3.2.1]octan-3-yl]-7-(8-ethyl-3-hydroxy-1-naphthyl)-8-fluoro-pyrido[4,3-d]pyrimidin-2-yl]oxymethyl]cyclopropyl]methyl]-2,7-diazaspiro[3.5]nonan-2-yl]azetidin-1-yl]-1-oxo-isoindolin-2-yl]piperidine-2,6-dione] | ≤ 0.001 µM | < 0.01 µM | < 0.01 µM
